According to patent US20060171911A1, “Diiodomethyl-p-tolylsulfone as a particulate dispersion in a liquid solvent in combination with an anti-dandruff active” (priority 2005, published 2006):

How the values were obtained:
[1] = test system: fungal; assay: Anti-fungal activity, dispersed particle form vs. dissolved in an effective solvent
[2] = test system: fungal; conditions: cited from earlier work
[3] = cited from earlier work

Cc1ccc(S(=O)(=O)C(I)I)cc1 [diiodomethyl-p-tolylsulfone, Benzene, 1-[(diiodomethyl)sulfonyl]-4-methyl-(9CI)]
activity retained in dispersed particle form vs. dissolved in an effective solvent [1]: about 100%
pH range over which effective [2]: 2-11 pH
water solubility [3]: less than 5 ppm
